The experiment has as its target HSP90 (Homo sapiens, UniProt P07900). Put plainly: HSP90 inhibition (HSP90 IC50). In kind it is biochemical.
On to `COc1cccc(C(=O)N[C@H]2C[C@H]3CC[C@@H](C2)N3c2ccc(C(=O)NCCN3CCOCC3)cn2)c1C` [6-[3-endo-({[2-methyl-3-(methyloxy)phenyl]carbonyl}amino)-8-azabicyclo[3.2.1]oct-8-yl]-N-(2-morpholin-4-ylethyl)pyridine-3-carboxamide], for which the IC50 lay within 1000 to 2000 nM.

`COc1cccc(C(=O)N[C@H]2C[C@H]3CC[C@@H](C2)N3c2ccc(C(=O)NCCN3CCCCC3)cn2)c1C` [6-[3-endo-({[2-methyl-3-(methyloxy)phenyl]carbonyl}amino)-8-azabicyclo[3.2.1]oct-8-yl]-N-(2-piperidin-1-ylethyl)pyridine-3-carboxamide] showed an IC50 of 1000 to 2000 nM.

For `COc1cccc(C(=O)N[C@H]2C[C@H]3CC[C@@H](C2)N3c2ccc(C(=O)NCCc3cccnc3)cn2)c1C` [6-[3-endo-({[2-methyl-3-(methyloxy)phenyl]carbonyl}amino)-8-azabicyclo[3.2.1]oct-8-yl]-N-(2-pyridin-3-ylethyl)pyridine-3-carboxamide], the IC50 is 1000 to 2000 nM.

As to `COc1cccc(C(=O)N[C@H]2C[C@H]3CC[C@@H](C2)N3c2ccc(C(=O)NCCc3ccncc3)cn2)c1C` [6-[3-endo-({[2-methyl-3-(methyloxy)phenyl]carbonyl}amino)-8-azabicyclo[3.2.1]oct-8-yl]-N-(2-pyridin-4-ylethyl)pyridine-3-carboxamide], the half-inhibitory concentration (IC50) lay in the range of 1000 to 2000 nM.

`COc1cccc(C(=O)N[C@H]2C[C@H]3CC[C@@H](C2)N3c2ccc(C(=O)Nc3cccc(C)c3)cn2)c1C` [6-[3-endo-({[2-methyl-3-(methyloxy)phenyl]carbonyl}amino)-8-azabicyclo[3.2.1]oct-8-yl]-N-(3-methylphenyl)pyridine-3-carboxamide] came in with a concentration for half-maximal inhibition (IC50) of 2000 to 10000 nM.

The compound `COc1cccc(C(=O)N[C@H]2C[C@H]3CC[C@@H](C2)N3c2ccc(C(=O)NCCCN3CCOCC3)cn2)c1C` [6-[3-endo-({[2-methyl-3-(methyloxy)phenyl]carbonyl}amino)-8-azabicyclo[3.2.1]oct-8-yl]-N-(3-morpholin-4-ylpropyl)pyridine-3-carboxamide] showed an IC50 of 500 to 999 nM.

Compound `COc1cccc(C(=O)N[C@H]2C[C@H]3CC[C@@H](C2)N3c2ccc(C(=O)Nc3ccc(C)cc3)cn2)c1C` [6-[3-endo-({[2-methyl-3-(methyloxy)phenyl]carbonyl}amino)-8-azabicyclo[3.2.1]oct-8-yl]-N-(4-methylphenyl)pyridine-3-carboxamide] came in with an IC50 of 1000 to 2000 nM.

`COc1cccc(C(=O)N[C@H]2C[C@H]3CC[C@@H](C2)N3c2ccc(C(=O)NCc3cccnc3)cn2)c1C` [6-[3-endo-({[2-methyl-3-(methyloxy)phenyl]carbonyl}amino)-8-azabicyclo[3.2.1]oct-8-yl]-N-(pyridin-3-ylmethyl)pyridine-3-carboxamide] yielded an IC50 of less than 500 nM.

`COc1cccc(C(=O)NC2CC3CCC(C2)N3c2ccc(C(=O)NCC3CCCO3)cn2)c1C` (stereo not drawn) [6-[3-endo-({[2-methyl-3-(methyloxy)phenyl]carbonyl}amino)-8-azabicyclo[3.2.1]oct-8-yl]-N-(tetrahydrofuran-2-ylmethyl)pyridine-3-carboxamide] returned an IC50 of 2000 to 10000 nM.

On to `COc1cccc(C(=O)N[C@H]2C[C@H]3CC[C@@H](C2)N3c2ccc(C(=O)NCc3ccc(N4CCN(CC(C)C)CC4)cc3)cn2)c1C` [6-[3-endo-({[2-methyl-3-(methyloxy)phenyl]carbonyl}amino)-8-azabicyclo[3.2.1]oct-8-yl]-N-({4-[4-(2-methylpropyl)piperazin-1-yl]phenyl}methyl)pyridine-3-carboxamide], for which the IC50 was less than 500 nM.

`COc1cccc(C(=O)N[C@H]2C[C@H]3CC[C@@H](C2)N3c2ccc(C(=O)NCc3ccc(OC(F)(F)F)cc3)cn2)c1C` [6-[3-endo-({[2-methyl-3-(methyloxy)phenyl]carbonyl}amino)-8-azabicyclo[3.2.1]oct-8-yl]-N-({4-[(trifluoromethyl)oxy]phenyl}methyl) pyridine-3-carboxamide] returned an IC50 of 2000 to 10000 nM.

The values are drawn from US8012956B2, “Tropane compounds” (Exelixis, Inc., priority 2007, dated 2011).
